Columns and labels:
Format in all cases: functional
DU-145 = assay: Cytotoxicity against human DU145 cells assessed as cell growth level at 100 nM after 48 hrs by sulforhodamine B assay
MOLT-4 [1] = assay: Cytotoxicity against human MOLT4 cells assessed as cell growth level at 10 nM after 48 hrs by sulforhodamine B assay
LOX IMVI = assay: Cytotoxicity against human LOXIMVI cells after 48 hrs by sulforhodamine B assay
T47D [2] = assay: Cytotoxicity against human T47D cells after 48 hrs by sulforhodamine B assay
SNB-19 = assay: Cytotoxicity against human SNB19 cells assessed as cell growth level at 10 uM after 48 hrs by sulforhodamine B assay
SK-MEL-2 [3] = assay: Cytotoxicity against human SK-MEL-2 cells assessed as cell growth level at 10 nM after 48 hrs by sulforhodamine B assay
UO-31 = assay: Cytotoxicity against human UO31 cells assessed as cell growth level at 100 nM after 48 hrs by sulforhodamine B assay
HOP-62 = assay: Cytotoxicity against human HOP62 cells after 48 hrs by sulforhodamine B assay; conditions: HOP-62, 48 h
T47D [4] = assay: Cytotoxicity against human T47D cells assessed as cell growth level at 100 nM after 48 hrs by sulforhodamine B assay
NCI-H23 [5] = assay: Cytotoxicity against human NCI-H23 cells assessed as cell growth level at 1 uM after 48 hrs by sulforhodamine B assay
SW-620 = assay: Cytotoxicity against human SW620 cells assessed as cell growth level at 100 nM after 48 hrs by sulforhodamine B assay
K562 = assay: Cytotoxicity against human K562 cells after 48 hrs by sulforhodamine B assay; conditions: K562, 48 h
SF-268 [6] = assay: Cytotoxicity against human SF268 cells assessed as cell growth level at 100 uM after 48 hrs by sulforhodamine B assay
NCI-H23 [7] = assay: Cytotoxicity against human NCI-H23 cells assessed as cell growth level at 10 uM after 48 hrs by sulforhodamine B assay
SR [8] = assay: Cytotoxicity against human SR cells assessed as cell growth level at 100 uM after 48 hrs by sulforhodamine B assay
IGROV-1 = assay: Cytotoxicity against human IGROV1 cells assessed as cell growth level at 1 uM after 48 hrs by sulforhodamine B assay
SR [9] = assay: Cytotoxicity against human SR cells assessed as cell growth level at 100 nM after 48 hrs by sulforhodamine B assay
MOLT-4 [10] = assay: Cytotoxicity against human MOLT4 cells after 48 hrs by sulforhodamine B assay; conditions: MOLT-4, 48 h
MOLT-4 [11] = assay: Cytotoxicity against human MOLT4 cells assessed as cell growth level at 100 uM after 48 hrs by sulforhodamine B assay
SF-539 = assay: Cytotoxicity against human SF539 cells assessed as cell growth level at 100 nM after 48 hrs by sulforhodamine B assay
UACC-62 [12] = assay: Cytotoxicity against human UACC62 cells assessed as cell growth level at 100 uM after 48 hrs by sulforhodamine B assay
UACC-62 [13] = assay: Cytotoxicity against human UACC62 cells after 48 hrs by sulforhodamine B assay; conditions: UACC-62, 48 h
RXF 393 = assay: Cytotoxicity against human RXF393 cells assessed as cell growth level at 100 nM after 48 hrs by sulforhodamine B assay
MDA-MB-468 = assay: Cytotoxicity against human MDA-MB-468 cells assessed as cell growth level at 10 uM after 48 hrs by sulforhodamine B assay
T47D [14] = assay: Cytotoxicity against human T47D cells assessed as cell growth level at 10 nM after 48 hrs by sulforhodamine B assay
BT-549 = assay: Cytotoxicity against human BT549 cells assessed as cell growth level at 100 uM after 48 hrs by sulforhodamine B assay
KM12 [15] = assay: Cytotoxicity against human KM12 cells assessed as cell growth level at 10 uM after 48 hrs by sulforhodamine B assay
[16] = Cytotoxicity against human NCI-ADR-RES cells after 48 hrs by sulforhodamine B assay
COLO 205 = assay: Cytotoxicity against human COLO205 cells assessed as cell growth level at 1 uM after 48 hrs by sulforhodamine B assay
MDA-MB-435 = assay: Cytotoxicity against human MDA-MB-435 cells assessed as cell growth level at 100 nM after 48 hrs by sulforhodamine B assay
SF-268 [17] = assay: Cytotoxicity against human SF268 cells assessed as cell growth level at 10 uM after 48 hrs by sulforhodamine B assay
NCI-H522 = assay: Cytotoxicity against human NCI-H522 cells assessed as cell growth level at 1 uM after 48 hrs by sulforhodamine B assay
SK-MEL-2 [18] = assay: Cytotoxicity against human SK-MEL-2 cells assessed as cell growth level at 10 uM after 48 hrs by sulforhodamine B assay
KM12 [19] = assay: Cytotoxicity against human KM12 cells assessed as cell growth level at 100 uM after 48 hrs by sulforhodamine B assay
CCRF-CEM = assay: Cytotoxicity against human CCRF-CEM cells assessed as cell growth level at 100 nM after 48 hrs by sulforhodamine B assay
[20] = read-out: LC50 (the source's name)
[21] = read-out: pLC50 (the source's name) (converted)

## O=c1oc2ccccc2cc1-c1csc(N/N=C/c2c[nH]c3ccccc23)n1
DU-145
  Activity: 92%
MOLT-4 [1]
  Activity: 92%
LOX IMVI; read-out: GI50
  GI50: 1.93 µM
LOX IMVI; [20]
  CC50: 6.71 µM
LOX IMVI; read-out: TGI
  TGI: 3.6 µM
LOX IMVI; read-out: pGI50 (converted)
  GI50: 1.91 µM
LOX IMVI; [21]
  CC50: 6.76 µM
LOX IMVI; read-out: pTGI (converted)
  TGI: 3.63 µM
T47D [2]; read-out: GI50
  GI50: 1.98 µM
T47D [2]; [20]
  CC50: > 100 µM
T47D [2]; read-out: TGI
  TGI: 5.9 µM
T47D [2]; read-out: pGI50 (converted)
  GI50: 2 µM
T47D [2]; [21]
  CC50: > 100 µM
T47D [2]; read-out: pTGI (converted)
  TGI: 5.89 µM
SNB-19
  Activity: 39.43%
SK-MEL-2 [3]
  Activity: 98%
UO-31
  Activity: 91%
HOP-62; read-out: GI50
  GI50: 3.73 µM
HOP-62; read-out: LC50
  LC50: > 100 µM
HOP-62; read-out: TGI
  TGI: 20 µM
HOP-62; read-out: pGI50 (converted)
  GI50: 3.72 µM
HOP-62; read-out: pLC50 (converted)
  LC50: > 100 µM
HOP-62; read-out: pTGI (converted)
  TGI: 20 µM
T47D [4]
  Activity: 96%
NCI-H23 [5]
  Activity: 83%
SW-620
  Activity: 95%
K562; read-out: GI50
  GI50: 3.18 µM
K562; read-out: LC50
  LC50: > 100 µM
K562; read-out: TGI
  TGI: 10.4 µM
K562; read-out: pGI50 (converted)
  GI50: 3.16 µM
K562; read-out: pLC50 (converted)
  LC50: > 100 µM
K562; read-out: pTGI (converted)
  TGI: 10.5 µM
SF-268 [6]
  Activity: -21%
NCI-H23 [7]
  Activity: 25.93%
SR [8]
  Activity: -46%
IGROV-1
  Activity: 58%
SR [9]
  Activity: 102%
MOLT-4 [10]; read-out: GI50
  GI50: 0.4 µM
MOLT-4 [10]; read-out: LC50
  LC50: > 100 µM
MOLT-4 [10]; read-out: TGI
  TGI: 3.27 µM
MOLT-4 [10]; read-out: pGI50 (converted)
  GI50: 0.407 µM
MOLT-4 [10]; read-out: pLC50 (converted)
  LC50: > 100 µM
MOLT-4 [10]; read-out: pTGI (converted)
  TGI: 3.24 µM
MOLT-4 [11]
  Activity: -40%
SF-539
  Activity: 88%
UACC-62 [12]
  Activity: -27%
UACC-62 [13]; read-out: GI50
  GI50: 1.6 µM
UACC-62 [13]; [20]
  CC50: 7.11 µM
UACC-62 [13]; read-out: TGI
  TGI: 3.38 µM
UACC-62 [13]; read-out: pGI50 (converted)
  GI50: 1.58 µM
UACC-62 [13]; [21]
  CC50: 7.08 µM
UACC-62 [13]; read-out: pTGI (converted)
  TGI: 3.39 µM
RXF 393
  Activity: 93%
MDA-MB-468
  Activity: 2.39%
T47D [14]
  Activity: 101%
BT-549
  Activity: -88%
KM12 [15]
  Activity: -47.67%
[16]; read-out: GI50
  GI50: 2.82 µM
[16]; [20]
  CC50: > 100 µM
[16]; read-out: TGI
  TGI: 9.23 µM
[16]; read-out: pGI50 (converted)
  GI50: 2.82 µM
[16]; [21]
  CC50: > 100 µM
[16]; read-out: pTGI
  TGI: < 9.33 µM
COLO 205
  Activity: 109%
MDA-MB-435
  Activity: 99%
SF-268 [17]
  Activity: 14.73%
NCI-H522
  Activity: 103%
SK-MEL-2 [18]
  Activity: -9.49%
KM12 [19]
  Activity: -52%
CCRF-CEM
  Activity: 98%
